Values after ≈ are worked out from the molar mass of the structure shown. Like-named read-outs stand apart in the source and are kept apart here.
Key:
[1] = test system: Gp Ib: S. aureus 193, BX-1633-2 A9606, A15092, Russell, A9602; details: Staphylococcus aureus, read-out: Minimum Inhibitory Concentration Gp Ib, Mueller-Hinton agar, average of five organisms
in vivo = details: mouse; for half-life: T1/2
[2] = test system: Gp Ia: S. aureus Smith A9537, A9497, Terajima, A9534, A9601; details: Staphylococcus aureus, read-out: Minimum Inhibitory Concentration Gp Ia, Mueller-Hinton agar, average of five organisms
S. aureus Smith = experiment: Protective dose, mice infected with lethal inoculum, oral treatment, S. aureus Smith; type: in vivo; details: Staphylococcus aureus, po, 120 h, oral; 50% survival for 5 days; groups of 5 mice; read-out: Protective dose (PD50), S. aureus Smith
E. coli Juhl = experiment: Protective dose, mice infected with lethal inoculum, oral treatment, E. coli Juhl; type: in vivo; details: Escherichia coli, po, 120 h, oral; 50% survival for 5 days; groups of 5 mice; read-out: Protective dose (PD50), E. coli Juhl

Row | Compound | MIC ([1]; run 1) | AUC (in vivo; im, 20 mg/kg, AUC*) | Cmax (in vivo; im, 20 mg/kg) | half-life (in vivo; im, 20 mg/kg) | AUC (in vivo; po, 20 mg/kg, AUC*) | Cmax (in vivo; po, 20 mg/kg) | half-life (in vivo; po, 20 mg/kg) | AUC (in vivo; po, 100 mg/kg, AUC) | Cmax (in vivo; po, 100 mg/kg) | half-life (in vivo; po, 100 mg/kg) | MIC ([2]; run 1) | ED50 (S. aureus Smith) | ED50 (E. coli Juhl) | MIC ([1]; run 2) | MIC ([2]; run 2)
1 | COC/C=C\C1=C(C(=O)O)N2C(=O)[C@@H](NC(=O)[C@H](N)c3ccc(O)cc3)[C@H]2SC1 [Compound 17, 7β-[D-2-Amino-2-(p-hydroxyphenyl)acetamido]-3-[(Z)-3-methoxy-1-propen-1-yl]-3-cephem-4-carboxylic Acid] | 2.1 µg/mL (≈ 5.01 µM) | 19000 ng·h/mL | 24000 ng/mL | 0.6 h | 28000 ng·h/mL | 18000 ng/mL | 1.6 h | 197000 ng·h/mL | 73000 ng/mL | 1.7 h | 0.53 µg/mL (≈ 1.26 µM) | – | – | – | –
2 | C/C=C/C1=C(C(=O)O)N2C(=O)[C@@H](NC(=O)[C@H](N)c3ccc(O)cc3)[C@H]2SC1 [Compound 8, 7β-[D-2-Amino-2-(p-hydroxyphenyl)acetamido]-3-[(E)-1-propen-1-yl]-3-cephem-4-carboxylic Acid] | 1.4 µg/mL (≈ 3.59 µM) | 31000 ng·h/mL | 31000 ng/mL | 0.63 h | 22000 ng·h/mL | 10000 ng/mL | 1.3 h | 69000 ng·h/mL | 30000 ng/mL | 1.4 h | 0.26 µg/mL (≈ 0.668 µM) | 0.2 mg/kg | 7.5 mg/kg | – | –
3 | C/C=C\C1=C(C(=O)O)N2C(=O)[C@@H](NC(=O)[C@H](N)c3ccc(O)c(Cl)c3)[C@H]2SC1 [Compound 32, 7β-[D-2-Amino-2-(3-chloro-4-hydroxyphenyl)acetamido]-3-[(Z)-1-propen-1-yl]-3-cephem-4-carboxylic acid] | – | 13000 ng·h/mL | 21000 ng/mL | 0.48 h | 13000 ng·h/mL | 7900 ng/mL | 1.7 h | 37000 ng·h/mL | 25000 ng/mL | 1.7 h | – | 0.17 mg/kg | 3.04 mg/kg | 0.53 µg/mL (≈ 1.25 µM) | 0.13 µg/mL (≈ 0.307 µM)
4 | C=CC1=C(C(=O)O)N2C(=O)[C@@H](NC(=O)[C@H](N)c3ccc(O)cc3)[C@H]2SC1 [Compound 11] | 1.2 µg/mL (≈ 3.2 µM) | 15000 ng·h/mL | 23000 ng/mL | 0.37 h | 13000 ng·h/mL | 11000 ng/mL | 1.4 h | 49000 ng·h/mL | 43000 ng/mL | 1.2 h | 0.4 µg/mL (≈ 1.07 µM) | 0.18 mg/kg | 3.8 mg/kg | – | –

Source: patent publication US4520022A, “Substituted vinyl cephalosporins” (priority 1983, dated 1985)
